Values of other authors, collected in patent publication US20100068280A1, “SUSTAINED RELEASE PHARMACEUTICAL DOSAGE FORM CONTAINING PHENYLEPHRINE” (priority 2006, published 2010).

Conditions: in vivo

elimination half-life: 9 to 12 h
SMILES: CN1CCC(=C2c3ccccc3CCc3cccnc32)CC1 [Azatadine]
